Assay results as given in patent US8535897B2, “Assays for non-apoptotic cell death and uses thereof” (The Trustees of Columbia University in the City of New York, priority 2006, dated 2013).

How the values were obtained:
VDAC2 = test: VDAC isoform levels after erastin treatment (quantitative 2D western); assay type: cell-based, human; conditions: BJ-TERT/LT/ST/RASV12 cells
Text: (§1) (a) Quantitative western blot of VDAC/eif4E protein ratio in engineered BJ-derived cells. (b) Identification of VDAC isoforms in BJ-TERT/LT/ST/RAS^V12 cells using 2-D electrophoresis. i) VDAC1, VDAC2 and VDAC3 were detected by a rabbit polyclonal VDAC antibody (Abcam/ab3434), ii) VDAC1 was detected by a mouse monoclonal VDAC1 antibody (Calbiochem/529534), iii) VDAC2 was detected by a goat polyclonal VDAC2 antibody (Abcam/ab22170), iv) An illustration of 3 isoforms of VDAC separated by the 2-D gel electrophoresis. (c) BJ-TERT/LT/ST/RASV12 cells were treated with erastin for the indicated time and levels of each VDAC isoform determined by quantitative 2D western. (d,e) Infection with VDAC3 shRNA protects erastin-treated cells. 293T cells were transfected with shRNA-plasmid construct using FuGene and viral supernatant transferred to HT1080 cells, and treated with erastin dilutions and viability measured using Trypan Blue exclusion. […] (f) Quantitative RT-PCR measurements of mRNA levels of the 3 VDAC isoforms after infection with shVDAC3. Knockdown was determined by normalizing to the levels in the shGFP-infected control. […] (g) Mitochondria were purified from yeast expressing murine VDAC3 in place of yeast VDAC, and the rate of NADH uptake determined in the presence or absence of erastin, or in shocked mitochondria in which the outer membrane was disrupted. […]

VDAC3 = test: as above; assay type: cell-based, human; conditions: BJ-TERT/LT/ST/RASV12 cells
Text: as §1

EWS502 = test: Response of tumor cell lines to erastin (dose-response); assay type: cell-based; conditions: EWS 502
Description: (§2) In certain aspects, the invention provides that erastin is lethal to tumor cells with activating mutations in proteins downstream of RAS proteins. Dose-response of 30 tumor cell lines to erastin was measured, and at least 50% inhibition of cell viability in 19 of the 30 tumor cell lines was formed. Numerous sarcoma-derived tumor cell lines were sensitive to erastin, consistent with the fact that erastin was discovered in an engineered tumor cell line created from human fibroblasts. Non-limiting examples include, HT1080 fibrosarcoma cells. HT1080 fibrosarcoma cells, which have a known activating mutation in NRAS, (Plattner, R. et al. Differential contribution of the ERK and JNK mitogen-activated protein kinase cascades to Ras transformation of HT1080 fibrosarcoma and DLD-1 colon carcinoma cells. Oncogene. 18: 1807-17 (1999), were quite sensitive to erastin. In order to determine whether RAS-activated signaling was modulated in cell lines that respond to erastin, the phosphorylation status of ERK1/2 in 12 sarcoma cell lines with a range of sensitivities to erastin was evaluated. In certain aspects, the invention provides a non-zero correlation, such as for example, a correlation coefficient of 0.41, between ERK1/2 phosphorylation status and erastin sensitivity in these cell lines.
(§3) Given that oncogenic RAS activates at least four downstream pathways, analysis was performed to identify which downstream effects were necessary for erastin sensitivity. In certain embodiments, the invention provides that erastin inhibits growth and kills genuine tumor cells with RAS mutations. In other embodiments, the invention provides measures of the dose-response of 29 tumor cell lines to erastin, wherein there is at least 50% inhibition of viability in 18 of the cell lines (Table 4). Numerous sarcoma-derived tumor cell lines were sensitive to erastin, consistent with the fact that erastin was discovered in an engineered tumor cell line created from human fibroblasts.

TC71 = test: as above; assay type: cell-based; conditions: TC 71
Description: as §2, §3

SK-N-MC = test: as above; assay type: cell-based
Description: as §2, §3

HL-60 = test: as above; assay type: cell-based
Description: as §2, §3

U973 = test: as above; assay type: cell-based; conditions: U937
Description: as §2, §3

SK-ES-1 = test: as above; assay type: cell-based; conditions: SICES1
Description: as §2, §3

TC32 = test: as above; assay type: cell-based; conditions: TC 32
Description: as §2, §3

SW872 = test: as above; assay type: cell-based; conditions: SW 872
Description: as §2, §3

CCOc1ccccc1-n1c(C(C)N2CCN(C(=O)COc3ccc(Cl)cc3)CC2)nc2ccccc2c1=O (stereo not shown) [erastin] was tested, and the “treatment time after which VDAC2 became undetectable” value (VDAC2) was 10 h, the “treatment time after which VDAC3 was no longer detectable” value (VDAC3) was 8 h and the “Erastin Sensitivity (maximum killing induced by erastin)” value (“Erastin Sensitivity” below) (EWS502) was 0.42. The “Erastin Sensitivity” value (TC71) was 0.92, the “Erastin Sensitivity” value (SK-N-MC) was 0.95 and the “Erastin Sensitivity” value (HL-60) was 0.00. For the same molecule, the “Erastin Sensitivity” value (U973) was 0.73, the “Erastin Sensitivity” value (SK-ES-1) was 0.96 and the “Erastin Sensitivity” value (TC32) was 0.88. For the same molecule, the “Erastin Sensitivity” value (SW872) was 0.00.
